Positions count from the first letter of the chain named. Entries after “also recorded” stand apart in the source; their conditions may differ. Like-named read-outs stand apart in the source and are kept apart here.
How the values were obtained:
SlitOBP1 = target: T1, SlitOBP1 (Spodoptera litura, UniProt A1Z1R1); experiment: Fluorescence competitive binding assay with 1-NPN, recombinant SlitOBP1; conditions: for binding to SlitOBP1 in the competitive fluorescence binding assay, in words: wild-type SlitOBP1, displacement of 1-NPN
T1 sequence (A1Z1R1 20-164): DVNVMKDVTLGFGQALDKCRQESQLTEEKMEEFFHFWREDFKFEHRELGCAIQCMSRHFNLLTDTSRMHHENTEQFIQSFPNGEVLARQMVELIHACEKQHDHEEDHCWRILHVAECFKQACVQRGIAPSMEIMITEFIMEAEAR

[1] = target: T2, SlitOBP1 Phe12 (phenylalanine to alanine) (Spodoptera litura, UniProt A1Z1R1, F31A); experiment: Fluorescence binding assay with 1-NPN, mutant SlitOBP1 Phe12
T2 sequence (A1Z1R1 20-164 F31A): T1 sequence (A1Z1R1 20-164) with F12A

[2] = target: T3, SlitOBP1 Ile52 (isoleucine to alanine) (Spodoptera litura, UniProt A1Z1R1, I71A); experiment: Fluorescence binding assay with 1-NPN, mutant SlitOBP1 Ile52
T3 sequence (A1Z1R1 20-164 I71A): T1 sequence (A1Z1R1 20-164) with I52A

[3] = target: T4, SlitOBP1 Thr9 (threonine to alanine) (Spodoptera litura, UniProt A1Z1R1, T28A); experiment: Fluorescence binding assay with 1-NPN, mutant SlitOBP1 Thr9
T4 sequence (A1Z1R1 20-164 T28A): T1 sequence (A1Z1R1 20-164) with T9A

[4] = target: T5, SlitOBP1 Glu98 (glutamic to alanine) (Spodoptera litura, UniProt A1Z1R1, E117A); experiment: Fluorescence binding assay with 1-NPN, mutant SlitOBP1 Glu98
T5 sequence (A1Z1R1 20-164 E117A): T1 sequence (A1Z1R1 20-164) with E98A

[5] = target: T6, SlitOBP1 Trp37 (tryptophan to alanine) (Spodoptera litura, UniProt A1Z1R1, W56A); experiment: Fluorescence binding assay with 1-NPN, mutant SlitOBP1 Trp37
T6 sequence (A1Z1R1 20-164 W56A): T1 sequence (A1Z1R1 20-164) with W37A

[6] = 2 μM SlitOBP1, 2 μM 1-NPN, ligand 0-20 μM, unit inferred

SMILES | Ki (SlitOBP1) [µM] | IC50 (SlitOBP1; [6]) [µM] | binding to SlitOBP1 in the competitive fluorescence binding assay, in words (SlitOBP1) | also measured
c1ccc(Nc2cccc3ccccc23)cc1 [1-NPN, N-phenyl-1-naphthylamine, reference compound] | – | – | – | Kd (SlitOBP1): 3.24 ± 0.2 µM; Kd [1]: 6.78 ± 0.25 µM; Kd [2]: 5.43 ± 0.31 µM; Kd [3]: 4.21 ± 0.19 µM; Kd [4]: 3.67 ± 0.25 µM; Kd [5]: 4.54 ± 0.28 µM
C[C@]12C=CC(=O)C=C1CC[C@@H]1[C@@H]2[C@@H](O)C[C@@]2(C)[C@H]1CC[C@]2(O)C(=O)CO [50-24-8, 11β,17α,21-trihydroxypregna-1,4-diene-3,20-dione, reference compound] | 3.1 | 5.02 | high affinities; also recorded: could effectively displace 1-NPN | –
C[C@]12C=CC(=O)C=C1CC[C@@H]1[C@@H]2C(=O)C[C@@]2(C)[C@H]1CC[C@]2(O)C(=O)CO [53-03-2, 1,2-Dehydrocortisone, reference compound] | 3.09 | 5 | high affinities; also recorded: could effectively displace 1-NPN | –
CC(=O)[C@H]1CC[C@H]2[C@@H]3CC=C4C[C@@H](O)CC[C@]4(C)[C@H]3CC[C@]12C [145-13-1, Delta-5-pregnenolone] | 9.13 | 14.8 | – | –
O=C(O)C(F)(F)C(F)(F)C(F)(F)C(F)(F)C(F)(F)C(F)(F)C(F)(F)C(F)(F)F [375-95-1, Perfluorononanoic acid] | 3.76 | 6.08 | high affinities; also recorded: could effectively displace 1-NPN | –
OCCC(F)(F)C(F)(F)C(F)(F)C(F)(F)C(F)(F)C(F)(F)C(F)(F)C(F)(F)F [678-39-7, 1H,1H,2H,2H-perfluoro-1-decanol] | 3.69 | 5.97 | – | binding to the mutant compared with the wild type, in words ([5]; mutant Trp37): better binding activities
OCC(F)(F)C(F)(F)C(F)(F)C(F)(F)C(F)(F)C(F)(F)C(F)(F)C(F)(F)CO [754-96-1, 1H,1H,10H,10H-perfluoro-1,10-decanediol] | 4.13 | 6.68 | – | –
O=C(O)C(F)(F)C(F)(F)C(F)(F)C(F)(F)C(F)(F)C(F)(F)C(F)(F)C(F)(F)Cl [865-79-2, 9-Chlorohexadecafluorononanoic acid] | 3.73 | – | high affinities; also recorded: could effectively displace 1-NPN | IC50 (SlitOBP1): 6 µM
CC(=O)[C@@]12O[C@@H]1C[C@H]1[C@@H]3CC=C4C[C@@H](O)CC[C@]4(C)[C@H]3CC[C@@]12C [974-23-2, 16,17-epoxypregnenolone] | 5.12 | 8.28 | – | –
N#CC(F)(F)C(F)(F)C(F)(F)C(F)(F)C(F)(F)C(F)(F)C(F)(F)C(F)(F)C#N [2342-09-8, Perfluorosebaconitrile] | – | – | no binding potential | –
CC(C)(C)OC(=O)C[C@H](NC(=O)OCc1ccccc1)C(=O)O [5545-52-8, N-Cbz-L-Aspartic acid 4-tert-butyl ester] | 4.14 | – | – | IC50 (SlitOBP1): 6.7 µM
NCC(=O)NC(Cc1ccc(O)cc1)C(=O)NCC(=O)O (stereo not drawn) [6099-08-7, H-Gly-Tyr-Gly-OH] | 3.78 | 6.11 | – | binding to the mutant compared with the wild type, in words ([3]; mutant Thr9): better binding activities; binding to the mutant compared with the wild type, in words ([4]; mutant Glu98): better binding activities
CC[C@H](C)[C@H](NC(=O)[C@@H](N)CCCCN)C(=O)O [20556-13-2, H-Lys-Ile-OH] | 4.65 | 7.52 | – | –
NC(=O)[C@@H]1CCCN1C(=O)[C@H](Cc1cnc[nH]1)NC(=O)[C@@H]1CCC(=O)N1 [24305-27-9, Pyr-His-Pro-NH2] | 4.44 | 7.18 | – | –
NCCC(F)(F)C(F)(F)C(F)(F)C(F)(F)C(F)(F)C(F)(F)C(F)(F)C(F)(F)F [30670-30-5, 1H,1H,2H,2H-perfluorodecylamine] | – | – | no binding potential | –
N[C@@H](Cc1ccc(O)cc1)C(=O)OCc1ccccc1 [42406-77-9, L-Tyrosine benzyl ester] | 4.47 | 7.23 | – | –
OCC(F)(F)C(F)(F)C(F)(F)C(F)(F)C(F)(F)C(F)(F)C(F)(F)CO [203303-01-9, 1H,1H,9H,9H-perfluoro-1,9-nonanediol] | 5.84 | 9.45 | – | –

From article PMC4278257 (International Journal of Biological Sciences, 2015)
